Columns and labels:
[1] = system: CHO cell line expressing the M1 muscarinic receptor; experiment: Pooled two-target microfluidic screen: Fluo-4 green fluorescence response of CHO-M1 cells; type: cell-based; conditions: pooled with THP-1 cells, microfluidic channel, blue excitation light, FIG. 6
Protocol: (§1) A THP-1 cell line was labeled with Fura red. Both cell lines were pooled and introduced into microfluidic device having the channel structure illustrated in FIG. 5. The cells were flowed through the main channel of the device past a detector that excited the cells with blue excitation light. Green fluorescence was analyzed from the Fluo-4 labeled CHO cells to measure their response to the test compounds. The measurement of the different fluorescence was accomplished simultaneously through the use of appropriate beam splitters and filters in the optical train of the detector. Similarly, red fluorescence was measured from the Fura-red labeled THP-1 cells to measure their response. […] Similarly, different concentrations of UTP were also contacted with the cells flowing through the channel and the results for each system were plotted (FIG. 6C-D).

THP-1 cell line = experiment: Pooled two-target microfluidic screen: Fura red fluorescence response of THP-1 cells; type: cell-based; conditions: pooled with CHO-M1 cells, microfluidic channel, blue excitation light, FIG. 6C-6D
Protocol: as §1

O=c1ccn([C@@H]2O[C@H](COP(=O)(O)OP(=O)(O)OP(=O)(O)O)[C@@H](O)[C@H]2O)c(=O)[nH]1 [UTP]
green fluorescence response of Fluo-4 labeled CHO-M1 cells to different concentrations of test compound [1]: dose dependent response | red fluorescence response of Fura-red labeled THP-1 cells to different concentrations of test compound (THP-1 cell line): dose dependent response

— patent publication US20010036626A1, “Screening assay methods and systems using target pooling” (priority 2000, published 2001)
